Measured values taken from PMC10643673, “An immunomodulating peptide with potential to suppress tumour growth and autoimmunity” (Scientific Reports, 2023).
Where a SMILES comes first, the peptide text is derived from it. [ ]: non-standard residue; d: D form. Gly(decyl) = CCCCCCCCCC[C@H](N)C(=O)O

What was measured:
[1] = tested on: exhausted CD4+ T cells derived from MBP-tracker mouse splenocytes; assay: Murine splenocyte-derived exhausted CD4+ T cell assay; assay type: cell-based; conditions: highest concentration 1.25 µM
Procedure: Concept Life Sciences have established a proprietary method for assessing murine CD4+ T cell exhaustion in vitro using Tg4-Ly5.1 MBP-Tracker Mice obtained from the University of Edinburgh. Spleens were removed from transgenic B10PLxC57BL/6 mice and processed to generate a single cell suspension of splenocytes. Myelin basic protein (MBP)-Tracker splenocytes were resuspended at 3 × 10^6/mL and stimulated 72 h at approximately 37 °C, 5% CO2, with altered peptide ligand (APL)-MBP (to generate exhausted cells). Following stimulation, T cells were purified by Ficoll density gradient, and subsequently re-plated at 2 × 10^6/mL in 20 U/mL IL-2 for four days. At the end of this rest period, cells were resuspended (4 × 10^5/mL, final 2 × 10^4 per well) and restimulated using irradiated APCs (from B10PLxC57BL/6 mice, 4 × 10^6/mL, final concentration of 2 × 10^5 cells per well) plus a single dose of APL-MBP peptide together with IK14004 peptide for 72 h.
Supernatants were sampled from culture wells for assessment of IL-2 and IFN-γ by ELISA (eBioScience, Lot # 4280695 and Lot #. 4308729, respectively) and flow cytometry used for assessment of CD25 and Ki67 (eBioScience, Lot # 4276862 and Lot # 4296884, respectively). Anti-PD-1 and IgG2a antibodies were obtained from BioXCell.

[2] = tested on: splenocyte-derived CD4+ T cells and NK cells; conditions: mouse, in vivo
Procedure: LLC cells sourced from ATCC. The Lewis lung cancer cell line was cultured to approximately 70% confluency before cells were collected and resuspended at 5 × 10^6 /mL in sterile HBSS. […] were injected subcutaneously with 5 × 10^5 cells (100 µL) into the right flank. Mice were randomly assigned to treatment groups 5 days after tumour cell implantation such that the average tumour size was approximately equal between the two groups. Test substance IK14004 or vehicle were administered twice weekly (Monday and Thursday) via intraperitoneal (i.p.) injections, from day 5 post tumour cell implantation, until the tumours reached an average of 10 mm in diameter in the vehicle treated group. Tumours were measured three times each week using digital callipers and once the mean tumour size for the vehicle group reached 10 mm in diameter, mice were sacrificed by cervical dislocation and tumour and spleens collected. Spleens were processed into single cell suspensions and the red blood cells lysed. Fresh splenocyte suspensions were assessed by trypan blue exclusion. From fresh splenocyte suspensions, 1 × 10^6 viable cells were stained using a viability dye (Flexible Viability Dye eFluorTM 780; ThermoFisher), CD4 (BV605), NK1.1 (BV510), CD25 (AF488), IL-12Rβ1 (PE) and IL-12Rβ2 (APC) for flow cytometry.

[3] = tested on: K562 erythroleukemic cells; assay: K562/PBMC co-culture cytotoxicity assay (Calcein AM release); conditions: PBMCs exposed to peptide 48 h, then 4 h co-culture at 5:1 ratio; 0.08 to 1.25 µM
Procedure: Human PBMCs (2.5 × 10^5 cells per well) were cultured in 96-well round-bottom tissue culture plates for 48 h at 37 °C, 5% CO2 in the presence of IK14004 and IKD14004 peptides. After peptide exposure, PBMCs were co-cultured with Calcein AM stained K562 cells (5 × 10^4/well) at a 5:1 ratio for 4 h at 37 °C, 5% CO2. For spontaneous release control Calcein AM-K562 cells alone were treated with PBS (20 µL). For maximal release control Calcein AM-K562 cells alone were treated with lysis buffer (20 µL). After 4 h culture, 150 µL supernatant were transferred to black wall plates and intensity of Calcein green fluorescence release detected using GloMax® Discover to determine percentage of specific cytotoxicity.

[4] = tested on: splenocytes / CD4+ T cells; assay: Splenocytes from LLC lung metastasis model, fresh or cultured overnight with/without TCR stimulation; assay type: in vivo, mouse; conditions: peptide- vs vehicle-treated mice; after 24 h
Procedure: Spleens were collected and processed into a single cell suspension. Fresh splenocytes were assessed by means of flow cytometry with CD28 (BV421) and 2 × 10^5 cells per well were then cultured overnight with or without TCR stimulation (anti-CD3 alone or in combination with anti-CD28 both at 2 µg/mL, plate bound overnight in PBS at 4 °C). After overnight culture cell free supernatants were collected and assessed for IFN-γ and IL-2 by ELISA (eBioscience Kits) and set up in technical triplicate. Cells before and after stimulation were stained for flow cytometry (viability, CD4, CD28 (BV711), IL-12Rβ1 and IL-12Rβ2.

human NK cells = assay: Isolated CD3−/CD56+dim NK cell cultures, flow cytometry; assay type: cell-based; conditions: 24 h; all concentrations
Procedure: CD3−/CD56+^dim NK cell populations were isolated from PBMCs using immuno-magnetic separation (Stem cell, Lot no. 18A86421). CD56^+ NK cells were resuspended in RPMI-10 (RPMI-1640 supplemented with 10% heat inactivated FBS, 100 U/mL penicillin, 100 µg/mL streptomycin, 2 mM L-glutamine, and 50 µM β-mercaptoethanol) at 0.25 × 10^6/mL and plated at a density of 2.5 × 10^4 per well (100 µL) in 96-well, flat bottom culture plates. Purified NK cells were cultured together with either IK14004 or recombinant IL-2 (InVitrogen, Lot #223086-011) for […] at 37 °C, 5% CO2.
(§1) Staining was performed to determine cell viability (Flexible Viability Dye eFluorTM 780; ThermoFisher) and expression of extracellular/intracellular markers assessed using fluorescently-labelled antibodies against human proteins within different cell populations. […] After 24 h cells were collected and CD4+ and CD8+ T cells assessed for TCRα/β expression (PE; BioLegend). Phospho-STAT4 in was assessed in TCR-activated CD3 + T cell and PBMC cultures. […] Cells were then stained with fluorochrome conjugated anti-pSTAT4 antibody (eBioscience, Lot# 12-9044) and intracellular expression determined within CD8+ T cells by flow cytometry. Similarly, anti-CD3-stimulated PBMC cultures were exposed only to recombinant IL-12p70 (Peprotech, Lot #0617596) and pSTAT4 assessed within CD4+ /CD8+ T cell fractions. […]

[5] = tested on: Lewis lung cancer (LLC) cells; assay: Cancer cell proliferation assay (SRB); assay type: cell-based, mouse; conditions: 72 h, doxorubicin 2.5 µM, positive control
Procedure: Lewis lung cancer (LLC) cells (sourced from the American Type Culture Collection) were seeded into 96-well plates (1000 cells/well) in complete cell culture medium and allowed to attach for 24 h (37 °C, 5% CO2 in air). Next, an equal volume of either cell culture medium only, or 2 × concentration of drug dissolved in cell culture medium, was added to each of 5 replicate wells (technical replicates) to expose cells to concentrations of IK14004 in the dose range from 0 to 5 µM. Cells were cultured for 72 h in the presence of either IK14004 or Doxorubicin (2.5 µM; positive control) and then the cell culture medium was removed and the attached cells fixed in ice-cold trichloroacetic acid. Fixed cells were stained with Sulforhodamine B (SRB) and then washed with 1% acetic acid to remove unbound dye. The retained dye was solubilised in 10 mM Tris base solution and the absorbance at 550 nm was measured with the baseline (media only without cells) subtracted. The data were normalised between the maximum proliferation (100%, cells with no drug) and the starting cell density (0%, cells before addition of drug). Each experiment was performed on two independent occasions (biological replicates).

[6] = tested on: human PBMCs (CD4+/CD8+ T cells, NK cells); assay: Anti-CD3-stimulated human PBMC cultures, flow cytometry/ELISA; assay type: cell-based; conditions: rIL-12p70 10 ng/mL; 72 h
Procedure: Preparations of peripheral blood mononuclear cells (PBMCs) and isolated T cells from buffy coat samples were performed using SepMate tubes, EasySep selection and enrichment kits, Lymphoprep, RoboSep Buffer, and EasySep magnets (STEMCELL Company). PBMCs were resuspended in RPMI-10 (RPMI-1640; ThermoFisher) supplemented with 10% heat inactivated Foetal Bovine Serum (LabTech), 100 U/mL penicillin, 100 µg/mL streptomycin (ThermoFisher), 2 mM L-glutamine (ThermoFisher), and 50 µM β-mercaptoethanol (ThermoFisher) at 1 × 10^6 cells/mL and plated at a density of 1 × 10^5 per well (100 µL) in 96-well, flat-bottom culture plates. […]
as §1, with “[…] Flow cytometry data” for “Similarly, anti-CD3-stimulated PBMC cultures”, “exported as FCS files from Attune™ NxT software” for “exposed only to recombinant IL-12p70 (Peprotech, Lot #0617596)”, “analysed using FlowJo™ software.” for “pSTAT4 assessed within CD4+ /CD8+ T cell fractions.”

CCCCCCCCCC[C@H](NC(=O)[C@H](CCCCCCCCCC)NC(=O)[C@H](CCCCCCCCCC)NC(=O)[C@H](CCCCCCCCCC)NC(=O)[C@H](CCCNC(=N)N)NC(=O)[C@H](Cc1ccc(O)cc1)NC(=O)[C@H](CC(C)C)NC(=O)[C@@H]1CCCN1C(=O)[C@H](CC(N)=O)NC(=O)[C@H](CCCCN)NC(=O)[C@H](C)NC(=O)[C@H](CCCCN)NC(=O)[C@H](CO)NC(=O)[C@@H](N)CCCNC(=N)N)C(N)=O [IK14004, RSKAKNPLYR-(2)Adod-(2)Adod-(2)Adod-(2)Adod-amide] (H-RSKAKNPLYR[Gly(decyl)][Gly(decyl)][Gly(decyl)][Gly(decyl)]-NH2)
visual signs of cell death at end of splenocyte culture [1]: no visual signs of cell death | viability of freshly harvested splenocytes [2]: ~100% | significant K562 cytotoxicity [3]: at most concentrations | viability of cultured splenocytes [4]: no differences | percentage of viable NK cells (human NK cells): remained unchanged

COc1cccc2c1C(=O)c1c(O)c3c(c(O)c1C2=O)C[C@@](O)(C(=O)CO)C[C@@H]3O[C@H]1C[C@H](N)[C@H](O)[C@H](C)O1 [doxorubicin]
proliferation of the LLC cell line [5]: total cell kill

B1: rIL-12p70: recombinant IL-12p70 (Peprotech), 10 ng/mL (protein, UniProt P29459 23-219; P29460 23-328, looked up)
Interleukin-12 subunit alpha: RNLPVATPDPGMFPCLHHSQNLLRAVSNMLQKARQTLEFYPCTSEEIDHEDITKDKTSTVEACLPLELTKNESCLNSRETSFITNGSCLASRKTSFMMALCLSSIYEDLKMYQVEFKTMNAKLLMDPKRQIFLDQNMLAVIDELMQALNFNSETVPQKSSLEEPDFYKTKIKLCILLHAFRIRAVTIDRVMSYLNAS
Interleukin-12 subunit beta: IWELKKDVYVVELDWYPDAPGEMVVLTCDTPEEDGITWTLDQSSEVLGSGKTLTIQVKEFGDAGQYTCHKGGEVLSHSLLLLHKKEDGIWSTDILKDQKEPKNKTFLRCEAKNYSGRFTCWWLTTISTDLTFSVKSSRGSSDPQGVTCGAATLSAERVRGDNKEYEYSVECQEDSACPAAEESLPIEVMVDAVHKLKYENYTSSFFIRDIIKPDPPKNLQLKPLKNSRQVEVSWEYPDTWSTPHSYFSLTFCVQVQGKSKREKKDRVFTDKTSATVICRKNASISVRAQDRYYSSSWSEWASVPCS
percentage of pSTAT4-expressing CD8+ T cells [6]: as did the percentage of pSTAT4-expressing CD8+ T cells | proportion of pSTAT4-expressing CD4+ T cells [6]: increased
